# Assay results reported in PMC12040169 (PLOS Biology, 2025).
# Assay: in vitro
# Conditions: human, hela cells, % viability
row,SMILES,"viability at 28.5 h, 10 µM [%]"
1,COc1cc(NC(=O)C(c2ccccc2)c2ccccc2)c(C(=O)O)cc1OC [CBK262001],90.1
2,O=C(CC1=C(O)C(=O)c2ccccc2C1=O)c1ccccc1 [CBK262002],80.5
3,Oc1ccc2ccccc2c1/C=N/Nc1nnc(-c2ccccc2)c(-c2ccccc2)n1 [CBK262005],91.9
4,Cc1ccccc1C(=O)Nc1cc(NC(=O)c2ccccc2C)cc(C(=O)O)c1 [CBK262007],109
5,CC1(C)CC(N2CNC(=N)N(C#N)C2)CC(C)(C)N1 [CBK262008],90.7
6,Oc1ccc(/N=N/c2cccc(Br)c2)cc1/C=N/c1ccc(-c2nc3ncccc3o2)cc1 [CBK262009],85.9
7,Oc1ccc(/C=N/Nc2nnc(-c3ccccc3)c(-c3ccccc3)n2)cc1 [CBK262011],112
8,Cc1ccccc1NC(=O)CCC(=O)N/N=C/c1ccncc1 [CBK262016],101
9,O=C(O)CC(Cc1ccc(Cl)cc1)C(=O)Nc1ccccc1I (centres unmarked) [CBK262021],90
10,O=C(N/N=C/c1c(Cl)cccc1Cl)c1cc(Br)ccc1O [CBK262022],95.1
11,Cc1ccc([N+](=O)[O-])cc1NC1OCC(O)C(O)C1O (centres unmarked) [CBK262026],98.8
12,COc1cc(/C=N/NC(=O)Cc2nnc(N)s2)cc(OC)c1OC [CBK262027],109
13,Oc1ccc2ccccc2c1/C=N/Nc1nnn[nH]1 [CBK262028],106
14,Cc1ccc([N+](=O)[O-])cc1NC1OC(C(O)CO)C(O)C1O (centres unmarked) [CBK262031],98
15,O=C(O)c1ccc(/C=N/c2ccc(S(=O)(=O)c3ccc(/N=C/c4ccc(C(=O)O)cc4)cc3)cc2)cc1 [CBK262038],92.4
16,CN(CCN(C)/N=C/c1c2ccccc2cc2ccccc12)/N=C/c1c2ccccc2cc2ccccc12 [CBK262039],94.8
17,CC(CNC(=O)c1cncc(Br)c1)NC(=O)c1cncc(Br)c1 (centres unmarked) [CBK262040],91.6
18,Oc1c(Br)cc(Cl)cc1/C=N/Nc1nnc2c(n1)[nH]c1ccccc12 [CBK262041],114
19,OCC(O)/C=N/Nc1nc(Nc2ccccc2)nc(N2CCCCC2)n1 (centres unmarked) [CBK262042],107
20,CN(C)CCCNC=C1C(=O)CC(C)(C)CC1=O [CBK262043],92.2
21,Cc1n[nH]c(C)c1Sc1ccccc1/N=C/c1ccc([N+](=O)[O-])cc1 [CBK262045],87.4
22,O=S1(=O)CC(OS(=O)(=O)c2ccc(Cl)cc2)C(OS(=O)(=O)c2ccc(Cl)cc2)C1 (centres unmarked) [CBK262049],104

row,SMILES,"viability at 28.5 h, 10 µM [%]"
1,Oc1ccccc1CN1CCN(Cc2ccccc2O)C1c1ccccc1Br [CBK262050],98.1
2,O=C(CO/N=C\c1cccc([N+](=O)[O-])c1)Nc1ccccc1C(=O)O [CBK262051],91.7
3,Cc1[nH]c(=O)[nH]c(=O)c1N(CCO)CCO [CBK262052],94.8
4,Cc1cc([N+](=O)[O-])ccc1/N=C\c1ccc(C(=O)O)cc1 [CBK262058],95.4
5,Clc1ccc(COc2ccc(/C=N/Nc3nc(N4CCOCC4)nc(N4CCOCC4)n3)cc2)c(Cl)c1 [CBK262061],103
6,N#CC(/N=C/c1ccc(C#Cc2ccccc2)cc1)=C(C#N)/N=C/c1ccc(C#Cc2ccccc2)cc1 [CBK262066],88
7,COc1ccc(-c2n[nH]cc2/C=N/NC(=O)c2cc(Br)ccc2O)c(OC)c1 [CBK262067],85.9
8,CC1CCN(S(=O)(=O)c2cccc3c(S(=O)(=O)N4CCC(C)CC4)cccc23)CC1 [CBK262071],98.2
9,Cc1ccc2ccc(S(=O)(=O)NCc3cccnc3)cc2c1 [CBK262072],98.8
10,CCN(CC)CC(c1ccccc1)C(O)c1ccc(OC)cc1 (centres unmarked) [CBK262074C],88.8
11,COc1cc(C)nc(NN)n1 [CBK262078],108
12,Cc1cc(-c2cc(C)n[nH]2)[nH]n1 [CBK262079],107
13,CC(=O)C(C(=O)Nc1ccc(F)cc1)C(c1cccc2ccccc12)C(C#N)C#N (centres unmarked) [CBK262081],90.4
14,Cc1nc2cc(/N=C/c3c[nH]c4ccccc34)ccc2n1C [CBK262085],88.8
15,c1ccc(CC(NCc2c[nH]c3ccccc23)c2ccccc2)cc1 (centres unmarked) [CBK262087],96.4
16,CC(C)(CNS(=O)(=O)c1ccc(Cl)cc1)OCc1ccccc1 [CBK262088],91.4
17,O=C(/C=C(\c1ccccc1)n1cncn1)c1ccc(Cl)cc1 [CBK262089],90.7
18,Cc1ccc(N(CC(=O)N/N=C/c2ccccc2)S(=O)(=O)c2ccccc2)cc1 [CBK262090],88.3
19,O=C(Nc1ccccc1O)c1ccc2c(c1)C(=O)N(c1ccc(Sc3ccc([N+](=O)[O-])cc3)cc1)C2=O [CBK262092],86.8
20,O=C(O)c1ccc(S(=O)(=O)NCc2ccccc2)cc1 [CBK262093],102
21,O=C(Oc1cccc(-c2cnc3ccccc3n2)c1)c1cccc(S(=O)(=O)N2CCOCC2)c1 [CBK262096],89.3
22,Cc1ccc(/C=N/NC(=O)CN(c2ccccc2)S(=O)(=O)c2ccccc2)c(C)c1C [CBK262098],89.6

row,SMILES,"viability at 28.5 h, 10 µM [%]"
1,C/C(=N\Nc1nc(-c2ccccc2)cs1)c1ccccc1 [CBK262104],88.8
2,Cc1ccccc1C(=O)NC(=S)Nc1sc2c(c1C(N)=O)CCC2 [CBK262107],88.9
3,CC(NC(=O)COc1ccc(Cl)cc1)C(=O)O (centres unmarked) [CBK262112],90.7
4,CC(Oc1cccc(Cl)c1)C(=O)N/N=C/c1cccc(Oc2ccccc2)c1 (centres unmarked) [CBK262113],77.5
5,Cn1c(/N=N/c2c(-c3ccccc3)n(C)c3ccccc23)nc2ccccc21 [CBK262114],81.2
6,O=C(O)CCC(=O)NNC(=O)c1cccc(O)c1 [CBK262116],97.8
7,Cc1ccc(S(=O)(=O)c2cccc(S(=O)(=O)N3CCOCC3)c2)cc1S(=O)(=O)N1CCOCC1 [CBK262117],109
8,Cc1ccccc1NCC(=O)N/N=C\c1cc(Br)c(O)c(Br)c1 [CBK262120],87.7
9,N#C/C(=C\c1ccc(-c2ccc(C(=O)O)c(O)c2)o1)c1nc2ccccc2[nH]1 [CBK262121],91.7
10,Cc1[nH]c(=O)[nH]c(=O)c1S(=O)(=O)Nc1ccc(S(N)(=O)=O)cc1 [CBK262123],91.7
11,O=C(COC(=O)c1cc(O)nc2ccccc12)c1ccc(Br)cc1 [CBK262125],103
12,CSc1ccc(CNCCc2c[nH]c3ccccc23)cc1 [CBK262126],93.4
13,COc1ccc(CC(C(=O)O)C(=O)O)cc1OC [CBK262127],95.9
14,N=c1n(CC(=O)c2ccc(-c3ccccc3)cc2)c2ccccc2n1Cc1ccccc1 [CBK262128B],99.3
15,O=C(Cn1c(NCCO)nc2ccccc21)C12CC3CC(CC(C3)C1)C2 [CBK262129B],85.4
16,O=C(CSc1nc2ccccc2s1)c1cccc([N+](=O)[O-])c1 [CBK262130],88.2
17,O=C(Nc1cccc2cccnc12)c1sc2ccccc2c1Cl [CBK262132],98.8
18,O=C1c2ccc(-n3c(=O)c4cc5c(=O)n(-c6ccc7c(c6)C(=O)N(c6ccccc6)C7=O)c(=O)c5cc4c3=O)cc2C(=O)N1c1ccccc1 [CBK262136],88.1
19,O=C(Cn1c(NCCO)nc2ccccc21)c1ccc([N+](=O)[O-])cc1 [CBK262139B],100
20,O=C(O)CSCC(=O)c1ccccc1 [CBK262140],93.1
21,Cc1noc(NS(=O)(=O)c2ccc(NC(=O)COc3ccc(Cl)cc3Cl)cc2)c1C [CBK262142],89.3
22,O=C(/C(=C\c1ccc([N+](=O)[O-])cc1)n1cncn1)c1ccc(Cl)cc1Cl [CBK262145],90.3

row,SMILES,"viability at 28.5 h, 10 µM [%]"
1,CCOc1cc(/C=N\NC(=O)CNc2ccccc2C)cc(Br)c1O [CBK262151],86.5
2,Cc1cccnc1NC(=O)COc1ccc(Cl)cc1Cl [CBK262154],86.5
3,Cc1cc(I)ccc1S(=O)(=O)NCc1ccccn1 [CBK262155],106
4,O=C(NCc1ccccn1)C(=O)N/N=C/c1ccccc1O [CBK262157],85.4
5,COc1ccc(CNC(=O)C(=O)NCc2ccccc2)cc1 [CBK262158],103
6,O=[N+]([O-])c1ccc(COc2cccc(/C=N/Nc3nc4ccccc4s3)c2)cc1 [CBK262160],87.8
7,O=c1c(-c2nc3ccccc3s2)coc2c(CN3CCCCC3)c(O)ccc12 [CBK262161],106
8,CCOc1ccc2nc(NS(=O)(=O)c3ccc4c5c(cccc35)C(=O)N4)sc2c1 [CBK262162],100
9,O=C(N/N=C/c1cc(Br)cc(Br)c1O)C(Oc1ccccc1)Oc1ccccc1 [CBK262164],95.6
10,COc1cc(/C=C2/S/C(=N\c3ccccc3)NC2=O)ccc1OCc1ccccc1[N+](=O)[O-] [CBK262165],88.4
11,Cc1ccc(N(CC(=O)N/N=C2\C(=O)Nc3ccccc32)S(=O)(=O)c2ccccc2)cc1 [CBK262169],105
12,O=C(CN1C(=O)/C(=C/c2ccccc2)SC1=S)Nc1cccc(C(=O)O)c1 [CBK262171],86.9
13,O=C(O)c1ccc(/C=C/C(=O)c2ccc3c(c2)OCCO3)cc1 [CBK262173],89.1
14,O=C(NC(NCc1ccco1)C(Cl)(Cl)Cl)c1ccc(Br)cc1 (centres unmarked) [CBK262174],89
15,NS(=O)(=O)c1ccc(NC(=S)NC(=O)/C=C/c2ccc([N+](=O)[O-])cc2)cc1 [CBK262176],99.2
16,Cc1ccc(NC(=O)CC(=O)NCCN2CCOCC2)cc1 [CBK262179],92.8
17,COc1cc(/C=C2/SC(=N)NC2=O)ccc1OCc1ccccc1[N+](=O)[O-] [CBK262181],85.4
18,Cc1ccc(N(CC(=O)N/N=C/c2ccc(Cl)cc2)S(=O)(=O)c2ccccc2)cc1 [CBK262182],98.3
19,Cc1cccnc1NC(=O)c1cccc(C(=O)Nc2ncccc2C)c1 [CBK262184],88.6
20,O=C(N/N=C/c1ccc(C(=O)O)cc1)C(=O)Nc1cccc(Br)c1 [CBK262185],88.6
